The results in this text go back to patent US7988944B2, “Peroxide decomposition catalyst” (Sumitomo Chemical Company, Limited, priority 2005, dated 2011).

Data set [1] can be described thus: Solubility test of catalyst in DMF. Type of data set: physicochemical. Conditions: for Weight of peroxide decomposition catalyst residue which remained undissolved in DMF: about 20 mg catalyst, DMF 5.00 ml in total, residue on filter paper dried and weighed; for Solubility: catalyst 20.0±0.1 mg in 5.0 ml DMF, equation 3; for solubility (in words): from Table 1, DMF. As for the experimental part:
Herein, as an index of solubility in a peroxide decomposition catalyst, solubility of a peroxide decomposition catalyst (20.0±0.1 mg) in a constant amount (5.0 ml) of dimethylformamide (hereinafter abbreviated as DMF) can be used. The solubility as used herein is represented by the following (equation 3).
First, a filter paper (No 5B φ21 m/m) for Kiriyama funnel was dried (100° C., under 200 pa reduced pressure, 6 h), and this was weighed. Then, a peroxide decomposition catalyst (20.0±0.1 mg) and DMF (2.00 ml) were weighed in a 8 ml glass sample tube containing a stirrer, and this was stirred with a magnetic stirrer for 5 minutes. This mixture was transferred with a 2 ml pipette to a glass Kiriyama funnel (φ21 mm) in which the dried filter paper was spread, and this was suction-filtered. The sample tube, the stirrer and the pipette which were used, were washed with DMF several times (total amount 3.00 ml), and the attached catalyst and DMF washing solution were transferred to the Kiriyama funnel, and these were suction-filtered together. Thereafter, the residue on the filter paper, and the filter paper together with the Kiriyama funnel were dried (100° C., under 200 pa reduced pressure, 24 h) in a vacuum oven. After drying, the filter paper, and the residue on the filter paper were weighed, and a dry filter paper weight before filtration was subtracted from this weight to obtain a weight of the peroxide decomposition catalyst residue which remained undissolved in DMF. From this, solubility indicated by the (equation 3) was calculated.

Data set [2] in a line: Hydrogen peroxide decomposition test in the presence of poly(sodium 4-styrenesulfonate). To be noted: 80° C.; for V(O2), generated oxygen volume: 20 minutes, pH4.0 tartrate buffer/ethylene glycol, 2.28 mmol H2O2, blank corrected, 0° C. and 101325 Pa; for N(O2), mole number of oxygen molecule generated per 20 minutes: oxygen regarded as ideal gas. As for the experimental part: To a mixture of 8.41 μmol (per one metal atom) of a catalyst and 21.1 mg of poly(sodium 4-styrenesulfonate) (product commercially available from Aldrich, weight average molecular weight: about 70,000) are added 1.00 ml of a tartaric acid/sodium tartrate buffer (pH4.0) and 1.00 ml of ethylene glycol. After this catalyst mixture is stirred at 80° C. for 5 minutes, 0.20 ml of an 11.4 mol/l aqueous hydrogen peroxide solution is added, and the mixture is stirred at 80° C. for 20 minutes. A volume of oxygen generated thereupon is measured with a gas burette, and an amount of decomposed hydrogen peroxide is calculated. Thereafter, this reaction solution is diluted and filtrated, and the filtrate is measured by gel permeation chromatography (GPC), thereby, a weight average molecular weight of poly(sodium 4-styrenesulfonate) after a test is obtained. The GPC analysis condition will be shown below. Column: TSKgel α-M (13 μm, 7.8 mmφ×30 cm) manufactured by Tosoh Corporation, column temperature: 40° C., mobile phase: 50 mmol/l aqueous ammonium acetate solution: CH3CN=7:3 (v/v), flow rate: 0.6 ml/min, detector: RI, injection amount: 50 μl. A weight average molecular weight was obtained as a value in terms of polyethylene oxide. The A value is obtained by the (equation 1), and the B value is obtained by the (equation 2).
Mn-bbpr (4.90 mg, 8.41 μmol (per one metal atom)), and poly(sodium 4-sutyrenesulfonate)(21.1 mg (product commercially available from Aldrich, weight average molecular weight: about 70,000)) were weighed in a two-necked flask (25 ml), and a tartaric acid/sodium tartrate buffer (1.00 ml (prepared from 0.20 mol/l tartaric acid aqueous solution and 0.10 mol/l sodium tartrate aqueous solution, pH4.0)) and ethylene glycol (1.00 ml) as a solvent were added thereto, followed by stirring. This was used as a catalyst mixed solution.
Septum was attached to one of inlets of the two-necked flask containing this catalyst mixed solution, and the other inlet was collected to a gas burette. This flask was stirred at 80° C. for 5 minutes, a hydrogen peroxide aqueous solution (11.4 mol/l, 0.20 ml (2.28 mmol)) was added via a syringe, and a hydrogen peroxide decomposition reaction was performed at 80° C. for 20 minutes. Generated oxygen was measured with a gas burette, and decomposed hydrogen peroxide was quantitated. An amount of generated oxygen was corrected based on the following blank test. Thereafter, the reaction solution was diluted with a water/acetonitrile mixed solution (water:acetonitrile=7:3 (v/v)) to a solution amount of 10.0 ml, and this solution was filtered with a syringe filter. This filtrate was GPC-measured, and a weight average molecular weight of poly (sodium 4-sutyrenesulfonate) after a test was obtained.
Poly(sodium 4-styrenesulfonate) after the hydrogen peroxide decomposition test was GPC-analyzed. The analyzing conditions are shown below. Column: TSKgel α-M (13 μm, 7.8 mmφ×30 cm) manufactured by Tosoh Corporation, column temperature: 40° C., mobile phase: 50 mmol/l ammonium acetate aqueous solution: CH3CN=7:3 (v/v), flow rate: 0.6 ml/min, detector: RI, in injection amount: 50 μl. A weight average molecular weight was obtained as a value in terms of polyethylene oxide.
An amount of decomposed hydrogen peroxide was obtained from a volume of oxygen generated in the hydrogen peroxide decomposition test.

With `[Co+2].c1ccc2c(c1)-c1nc-2nc2[n-]c(nc3nc(nc4[n-]c(n1)c1ccccc41)-c1ccccc1-3)c1ccccc21` [Cobalt phthalocyanine, cobalt phthalocyanine], in data set [1], the “Weight of peroxide decomposition catalyst residue which remained undissolved in DMF” value amounted to 17.5 mg, the Solubility came out at 12.9% and the “solubility (in words)” value is listed as “low solubility”. For the same molecule, in data set [2], the “V(O2), generated oxygen volume” value was 4.9 mL and the “N(O2), mole number of oxygen molecule generated per 20 minutes” value (shortened to “N(O2), mole number … per 20 minutes”) was 0.219 mmol.

In the case of `[Fe+2].c1ccc2c(c1)-c1nc-2nc2[n-]c(nc3nc(nc4[n-]c(n1)c1ccccc41)-c1ccccc1-3)c1ccccc21` [Iron phthalocyanine, iron phthalocyanine], in data set [1], the “Weight of peroxide decomposition catalyst residue which remained undissolved in DMF” value is on record as 17.9 mg, the Solubility amounted to 11.0% and the “solubility (in words)” value is reported as “low solubility”. In data set [2], the “V(O2), generated oxygen volume” value stood at 14.33 mL and the “N(O2), mole number … per 20 minutes” value was 0.64 mmol.

Regarding `[Cu+2].c1ccc2c(c1)-c1nc-2nc2[n-]c(nc3nc(nc4[n-]c(n1)c1ccccc41)-c1ccccc1-3)c1ccccc21` [Copper phthalocyanine, copper phthalocyanine], in data set [1], the “Weight of peroxide decomposition catalyst residue which remained undissolved in DMF” value amounted to 17.3 mg, the Solubility is 13.1% and the “solubility (in words)” value is on record as “low solubility”. Also, in data set [2], the “V(O2), generated oxygen volume” value is 0.00 mL and the “N(O2), mole number … per 20 minutes” value came to 0.00 mmol.

Regarding `O.O.[Na+].[Na+].[O]=[W](=[O])([O-])[O-]` [Sodium tungstate dihydrate], in data set [1], the “Weight of peroxide decomposition catalyst residue which remained undissolved in DMF” value turned out to be 16.5 mg, the Solubility turned out to be 17.8% and the “solubility (in words)” value is “low solubility”.

`CC(C)(C)c1ccc2c(c1)C1=Nc3c4cc(C(C)(C)C)ccc4c4[n]3[Fe][n]3c(c5ccc(C(C)(C)C)cc5c3=NC3=NC(=N4)c4cc(C(C)(C)C)ccc43)=NC2=N1` [Fe-pcy (^tBu)]: in data set [1], the “Weight of peroxide decomposition catalyst residue which remained undissolved in DMF” value was determined as 0.03 mg, the Solubility came to 99.8% and the “solubility (in words)” value is given as “high solubility”. Besides, in data set [2], the “V(O2), generated oxygen volume” value was 1.40 mL and the “N(O2), mole number … per 20 minutes” value is reported as 0.0625 mmol.
